Biological target: PCAF719-832 bromodomain (Homo sapiens (Human), UniProt Q92831)
Assay: PCAF AlphaLisa binding assay
Settings: PCAF bromodomain 225 nM, biotinylated small molecule ligand 6 nM

Sequence of PCAF719-832 bromodomain (Q92831 719-832): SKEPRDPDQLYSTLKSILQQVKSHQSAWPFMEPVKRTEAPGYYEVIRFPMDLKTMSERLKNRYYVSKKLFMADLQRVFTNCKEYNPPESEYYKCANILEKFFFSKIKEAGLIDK

| IC50 | Structure (SMILES) |
| --- | --- |
| 0.24 µM | CN(C)C(CNc1nn(C)c(=O)c2[nH]ccc12)c1ccccc1 (racemic) [Example 10, 4-((2-(dimethylamino)-2-phenylethyl)amino)-6-methyl-1H-pyrrolo[2,3-d]pyridazin-7(6H)-one] |
| 0.22 µM | CC(CN(C)C)Nc1nn(C)c(=O)c2ccncc12 (racemic) [Example 12, 4-((1-(dimethylamino)propan-2-yl)amino)-2-methylpyrido[3,4-d]pyridazin-1(2H)-one] |
| 0.15 µM | CC(CN(C)C)Nc1nn(C)c(=O)c2cnccc12 (racemic) [Example 13, 1-((1-(dimethylamino)propan-2-yl)amino)-3-methylpyrido[3,4-d]pyridazin-4(3H)-one] |
| 0.11 µM | CN(C)C(CNc1nn(C)c(=O)c2ccccc12)c1ccc(F)cc1 (racemic) [Example 20, 4-((2-(dimethylamino)-2-(4-fluorophenyl)ethyl)amino)-2-methylphthalazin-1(2H)-one] |
| 0.064 µM | COc1ccc(C(CNc2nn(C)c(=O)c3ccccc23)N(C)C)cc1 (racemic) [Example 21, 4-((2-(dimethylamino)-2-(4-methoxyphenyl)ethyl)amino)-2-methylphthalazin-1(2H)-one] |
| 0.14 µM | CN(C)C(CNc1nn(C)c(=O)c2ccccc12)c1ccccc1 (racemic) [Example 22, 4-((2-(dimethylamino)-2-phenylethyl)amino)-2-methylphthalazin-1(2H)-one] |
| 0.11 µM | CN(C)C(CNc1nn(C)c(=O)c2ccccc12)c1ccccc1Cl (racemic) [Example 25, 4-((2-(2-chlorophenyl)-2-(dimethylamino)ethyl)amino)-2-methylphthalazin-1(2H)-one] |
| 0.11 µM | CN(C)C(CNc1nn(C)c(=O)c2ccccc12)c1ccccc1F (racemic) [Example 26, 4-((2-(dimethylamino)-2-(2-fluorophenyl)ethyl)amino)-2-methylphthalazin-1(2H)-one] |
| 0.12 µM | CN(C)C(CNc1nn(C)c(=O)c2ccccc12)c1ccc(Cl)cc1 (racemic) [Example 27, 4-((2-(4-chlorophenyl)-2-(dimethylamino)ethyl)amino)-2-methylphthalazin-1(2H)-one] |
| 0.066 µM | CC(CN(C)C)Nc1nn(C)c(=O)c2ccccc12 (racemic) [Example 28, 4-((1-(dimethylamino)propan-2-yl)amino)-2-methylphthalazin-1(2H)-one] |
| 1.7 µM | CN1CCCC1CNc1nn(C)c(=O)c2ccccc12 (racemic) [Example 30, 2-methyl-4-(((1-methylpyrrolidin-2-yl)methyl)amino)phthalazin-1(2H)-one] |
| 8.1 µM | C/C=C/Cn1nc(NC(C)CN(C)C)c2ccccc2c1=O (racemic) [Example 31, (E)-2-(but-2-en-1-yl)-4-((1-(dimethylamino)propan-2-yl)amino)phthalazin-1(2H)-one] |
| 12 µM | Cn1nc(N[C@@H]2CCCC[C@H]2N)c2ccccc2c1=O (racemic) [Example 35, 4-(((1R,2R)-2-aminocyclohexyl)amino)-2-methylphthalazin-1(2H)-one] |
| 0.82 µM | CN(C)C(CNc1nn(C)c(=O)c2c1CCCC2)c1ccccc1 (racemic) [Example 36, 4-((2-(dimethylamino)-2-phenylethyl)amino)-2-methyl-5,6,7,8-tetrahydrophthalazin-1(2H)-one] |
| 0.13 µM | CN(C)C(CNc1nn(C)c(=O)c2c1CCC2)c1ccccc1 (racemic) [Example 37, 4-((2-(dimethylamino)-2-phenylethyl)amino)-2-methyl-2,5,6,7-tetrahydro-1H-cyclopenta[d]pyridazin-1-one] |
| 0.7 µM | CN(C)C(CNc1nn(C)c(=O)c2ccccc12)C1CCCCC1 (racemic) [Example 38, 4-((2-cyclohexyl-2-(dimethylamino)ethyl)amino)-2-methylphthalazin-1(2H)-one] |
| 0.18 µM | CCC(CNc1nn(C)c(=O)c2ccccc12)N(C)C (racemic) [Example 39, 4-((2-(dimethylamino)butyl)amino)-2-methylphthalazin-1(2H)-one] |
| 0.79 µM | CN1CCCC(Nc2nn(C)c(=O)c3ccccc23)C1 (racemic) [Example 43, 2-methyl-4-((1-methylpiperidin-3-yl)amino)phthalazin-1(2H)-one] |
| 0.26 µM | CN1CCC(Nc2nn(C)c(=O)c3ccccc23)C1 (racemic) [Example 44, 2-methyl-4-((1-methylpyrrolidin-3-yl)amino)phthalazin-1(2H)-one] |

| IC50 | Structure (SMILES) |
| --- | --- |
| 1.2 µM | CC(CN(C)C)Nc1nn(C)c(=O)c2c1CCN(c1ccc(Cl)cc1)C2 (racemic) [Example 89, 6-(4-chlorophenyl)-1-((1-(dimethylamino)propan-2-yl)amino)-3-methyl-5,6,7,8-tetrahydropyrido[3,4-d]pyridazin-4(3H)-one] |
| 0.82 µM | CC(CN(C)C)Nc1nn(C)c(=O)c2c1CN(c1ccc(Cl)cc1)CC2 (racemic) [Example 90, 6-(4-chlorophenyl)-4-((1-(dimethylamino)propan-2-yl)amino)-2-methyl-5,6,7,8-tetrahydropyrido[3,4-d]pyridazin-1(2H)-one] |
| 0.86 µM | C[C@@H](CNc1nn(C)c(=O)c2cccnc12)N(C)C (single isomer, unassigned) [Example 7A] |
| 0.072 µM | C[C@H](CNc1nn(C)c(=O)c2cccnc12)N(C)C (single isomer, unassigned) [Example 7B] |
| 0.042 µM | C[C@@H](CN(C)C)Nc1nn(C)c(=O)c2cccnc12 (single isomer, unassigned) [Example 8A] |
| > 5 µM | C[C@H](CN(C)C)Nc1nn(C)c(=O)c2cccnc12 (single isomer, unassigned) [Example 8B] |
| 0.18 µM | CN(C)[C@@H]1CCCC[C@H]1Nc1nn(C)c(=O)c2cccnc12 (single isomer, unassigned) [Example 11A] |
| > 5 µM | CN(C)[C@H]1CCCC[C@@H]1Nc1nn(C)c(=O)c2cccnc12 (single isomer, unassigned) [Example 11B] |
| > 5 µM | Cn1nc(N[C@@H]2CCCC[C@@H]2N)c2ncccc2c1=O (single isomer, unassigned) [Example 14A] |
| 1.5 µM | Cn1nc(N[C@H]2CCCC[C@H]2N)c2ncccc2c1=O (single isomer, unassigned) [Example 14B] |
| 0.078 µM | CN(C)[C@H]1CCCC[C@H]1Nc1nn(C)c(=O)c2cccnc12 (single isomer, unassigned) [Example 15A] |
| 1.5 µM | CN(C)[C@@H]1CCCC[C@@H]1Nc1nn(C)c(=O)c2cccnc12 (single isomer, unassigned) [Example 15B] |
| > 5 µM | CCn1nc(N[C@H](C)CN(C)C)c2ccccc2c1=O (single isomer, unassigned) [Example 17A] |
| 0.28 µM | CCn1nc(N[C@@H](C)CN(C)C)c2ccccc2c1=O (single isomer, unassigned) [Example 17B] |
| 0.047 µM | CN(C)[C@H](CNc1nn(C)c(=O)c2ccccc12)c1ccccc1 (single isomer, unassigned) [Example 22A] |
| 0.55 µM | CN(C)[C@@H](CNc1nn(C)c(=O)c2ccccc12)c1ccccc1 (single isomer, unassigned) [Example 22B] |
| 0.55 µM | CC[C@@H](CNc1nn(C)c(=O)c2ccccc12)N(C)C (single isomer, unassigned) [Example 39A] |
| 0.089 µM | CC[C@H](CNc1nn(C)c(=O)c2ccccc12)N(C)C (single isomer, unassigned) [Example 39B] |
